# Data: patent US20240050577A1, “CDK INHIBITORS AND PHARMACEUTICAL USES THEREOF” (RISEN (SUZHOU) PHARMA TECH CO., LTD., priority 2022, published 2024)
# How the values were obtained:
# Type in all cases: cell-based
# [1] = target: T1, CDK1 protein (Homo sapiens, UniProt P06493); test: CDK1 protein degradation in OVCAR3 cells (Western blot); conditions: 24 h; for DC50: read-out: DC50 CDK1 (half-maximum degradation concentration); for percent CDK1 protein degradation at 0.05 µM: OVCAR-3, 50 nM test compound, read-out: level of CDK1 protein degradation
# T1 construct: host or cells: OVCAR3
# T1 sequence (P06493 whole entry): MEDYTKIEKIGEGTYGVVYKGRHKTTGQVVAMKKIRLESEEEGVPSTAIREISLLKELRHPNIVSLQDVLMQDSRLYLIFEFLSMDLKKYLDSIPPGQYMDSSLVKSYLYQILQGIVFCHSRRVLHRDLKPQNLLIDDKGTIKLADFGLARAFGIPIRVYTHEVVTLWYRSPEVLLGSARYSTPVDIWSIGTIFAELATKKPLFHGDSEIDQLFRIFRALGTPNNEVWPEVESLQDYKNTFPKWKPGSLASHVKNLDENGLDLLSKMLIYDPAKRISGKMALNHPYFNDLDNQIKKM
# Procedure: (§1) OVCAR3 (Cobioer, CBP60294) cell line of exponential growth phase was inoculated on a 6-well cell culture plate (Corning, 3516) according to 3E5/well scheme; and the plate was incubated overnight in a 5%-carbon dioxide incubator at 37° C. The next day, the test compound was dissolved in DMSO (Sigma, RNBF5902) to prepare a 10-mM concentration stock solution. The stock solution was diluted with complete medium, giving working solutions of different concentrations. Working solution was added into the corresponding wells of the orifice plate. The plate was placed in a 5% carbon dioxide incubator, set at 37° C., and incubated for 24 h. The plate was removed from the incubator, and the cells were washed twice with precooled PBS (Gibco, 14190250), followed by addition of 40 μL RIPA lysis buffer (containing protease inhibitor (Invitrogen™, AM2696)) to each well. Adherent cells were scraped off with a cell scraper, and the cell lysate was transferred to a 1.5 mL centrifuge tube, and the tube was placed on ice for 30 minutes. After completion of cell lysis, the tube was centrifugated for 10 min at 4° C., 14000 rpm. The supernatant was transferred into a new 1.5-mL centrifuge tube, and the new tube was placed on ice, followed by measurement of the protein concentration with BCA protein detection kit (Thermo Fisher, 23225). A mixture of cell lysate (40 μL) and loading buffer (10 μL, 5×SDS (Beyotime, P0015L)) was placed into a water bath at 95° C. for 10 min to denature the protein. The denatured protein sample, 30 μL/well, was added into a corresponding well of 4-20% Bis-Tris gel (Kingsley, M00657). The initial voltage was adjusted to 80-V and run for 30 min, followed by voltage increased to 120 V, and run for another 40 min, until the strip had run to the appropriate position. After electrophoresis, iBlot2 (Life Technologies, IB21001) was used to transfer the film under the condition of 20 V and 7 min. At the end of film transfer, 5% skimmed milk powder was sealed at room temperature for 2 h, and then TBST (Thermo Scientific, 28360) buffer solution was used to rinse for three times, 10 minutes each time. Skimmed milk powder (5%) was diluted with the first antibody in the appropriate proportion, and the working solution of the first antibody was prepared and incubated overnight at 4° C. After the incubation of the first antibody, the membrane was washed three times at room temperature with TBST buffer solution, 10 minutes each time; and the second antibody was incubated with 5% skimmed milk powder at room temperature for 1 h. After washing the film for three times with TBST, ECL color developing solution (Thermofisher 34095) was added, and an image was taken on a Biorad Chemi Doc gel imager. The band gray value was analyzed (Image Lab).
# (§2) Symbols of “−”, “+”, “++”, and “+++” indicate that the degradation level of CDK protein induced by test compound was 10% or less, 11 to 30%, 31 to 60%, and greater than 60%, respectively.
# (§3) Half-maximum degradation concentrations (DC50s) of test compounds were calculated using GraphPad Prism and their values are shown in Table 4. Symbols of “++++”, “+++”, “++”, “+” and “−” represent DC50s equal or less than 10 nM, 11-50 nM, 51-100 nM, 101-200 nM, and >200 nM, respectively.
# [2] = target: T2, CDK2 protein (Homo sapiens, UniProt P24941); test: CDK2 protein degradation in OVCAR3 cells (Western blot); conditions: 24 h; for level of CDK2 protein degradation: 50 nM test compound; for DC50: read-out: DC50 CDK2 (half-maximum degradation concentration)
# T2 construct: host or cells: OVCAR3
# Procedure: as §1, §2, §3
# [3] = target: T3, CDK4 protein (Homo sapiens, UniProt P11802); test: CDK4 protein degradation in OVCAR3 cells (Western blot); conditions: 24 h; for DC50: read-out: DC50 CDK4 (half-maximum degradation concentration); for percent CDK4 protein degradation at 0.05 µM: OVCAR-3, 50 nM test compound, read-out: level of CDK4 protein degradation
# T3 construct: host or cells: OVCAR3
# T3 sequence (P11802 whole entry): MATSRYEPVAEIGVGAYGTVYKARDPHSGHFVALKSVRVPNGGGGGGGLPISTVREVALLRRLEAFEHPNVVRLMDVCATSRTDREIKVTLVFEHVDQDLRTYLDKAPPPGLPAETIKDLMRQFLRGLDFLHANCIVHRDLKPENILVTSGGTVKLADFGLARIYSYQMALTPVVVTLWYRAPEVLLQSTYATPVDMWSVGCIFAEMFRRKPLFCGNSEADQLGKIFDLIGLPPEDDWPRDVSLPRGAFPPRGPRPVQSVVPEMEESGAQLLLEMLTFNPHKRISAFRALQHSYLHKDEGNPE
# Procedure: as §1, §2, §3
# [4] = target: T4, CDK6 protein (Homo sapiens, UniProt Q00534); test: CDK6 protein degradation in OVCAR3 cells (Western blot); conditions: 24 h; for DC50: read-out: DC50 CDK6 (half-maximum degradation concentration); for percent CDK6 protein degradation at 0.05 µM: OVCAR-3, 50 nM test compound, read-out: level of CDK6 protein degradation
# T4 construct: host or cells: OVCAR3
# T4 sequence (Q00534 whole entry): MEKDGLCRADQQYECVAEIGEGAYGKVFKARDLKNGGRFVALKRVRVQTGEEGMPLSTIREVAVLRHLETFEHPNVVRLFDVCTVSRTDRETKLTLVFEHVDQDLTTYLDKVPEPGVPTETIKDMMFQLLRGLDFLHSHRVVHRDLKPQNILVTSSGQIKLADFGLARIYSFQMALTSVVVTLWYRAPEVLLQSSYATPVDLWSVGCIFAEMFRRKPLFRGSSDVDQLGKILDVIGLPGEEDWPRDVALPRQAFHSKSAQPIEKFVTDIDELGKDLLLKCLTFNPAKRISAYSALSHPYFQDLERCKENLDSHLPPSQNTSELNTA
# Procedure: as §1, §2, §3
# [5] = test system: OVCAR3 cells; test: Cell proliferation study (Cell Titer Glo, 72 h); conditions: Homo sapiens, OVCAR-3, luminescence, read-out: IC50, inhibitory effect on cellular proliferation
# Procedure: OVCAR3 (Cobioer, CBP60294) cell line in logarithmic growth phase was used for these experiments. The cell density was adjusted to 1.1×10^4/mL and the cells were inoculated into a 96-well cell culture plate (Corning, 3599), 95 μL per well (the number of cells per well was 1×10^3). The culture plate was placed in an incubator, with 5% carbon dioxide, at 37° C. and incubated overnight. On the next day, a 10 mM stock solution of test compound was prepared in DMSO (Sigma, RNBF5902). After gradient dilution, a series of working solutions with different concentrations of test compound was prepared using complete medium. Working solution was added into the corresponding wells of the orifice plate, and the plate was placed in a 5% carbon dioxide incubator and cultivated at 37° C. for 72 h, and then removed from the incubator. To each well was added 50 μL Cell Tier Glo (Promega, G7573), and the plate was incubated at room temperature for 10 min, followed by luminescence detection with an enzyme marker. The inhibition curve was obtained with GraphPad 7.0 software using four-parameter equation.
Structure (SMILES),DC50 [1],percent CDK1 protein degradation at 0.05 µM [1],level of CDK2 protein degradation [2],DC50 [2],DC50 [3],percent CDK4 protein degradation at 0.05 µM [3],DC50 [4],percent CDK6 protein degradation at 0.05 µM [4],IC50 [5]
Cc1nc2c(F)cc(-c3nc(NC4CCN(S(=O)(=O)C5CCN(CC6CCN(C7CN(c8cc9c(cc8F)C(=O)N(C8CCC(=O)NC8=O)C9=O)C7)CC6)CC5)CC4)ncc3F)cc2n1C(C)C (stereo not shown) [Compound 80],> 0.2 µM,≤ 10%,++ (31 to 60%),> 0.2 µM,> 0.2 µM,≤ 10%,< 0.01 µM,> 60%,< 0.1 µM
Cc1nc2c(F)cc(-c3nc(NC4CCN(S(=O)(=O)C5CCN(C6CCN(C7CN(c8cc9c(cc8F)C(=O)N(C8CCC(=O)NC8=O)C9=O)C7)CC6)CC5)CC4)ncc3F)cc2n1C(C)C (stereo not shown) [Compound 83],0.101 to 0.2 µM,31 to 60%,++ (31 to 60%),0.101 to 0.2 µM,> 0.2 µM,≤ 10%,0.101 to 0.2 µM,> 60%,< 0.1 µM
C[C@@]1(O)CCC[C@H]1n1c(=O)c(C(F)F)cc2cnc(NC3CCN(S(=O)(=O)C4CCN(CC5CCN(C6CN(c7cc8c(cc7F)C(=O)N(C7CCC(=O)NC7=O)C8=O)C6)CC5)CC4)CC3)nc21 (stereo partly shown) [Compound 37],< 0.01 µM,> 60%,+++ (greater than 60%),< 0.01 µM,> 0.2 µM,≤ 10%,> 0.2 µM,> 60%,< 0.1 µM
C[C@@]1(O)CCC[C@H]1n1c(=O)ccc2cnc(NC3CCN(S(=O)(=O)C4CCN(C5CC6(CCN(c7cc8c(cc7F)C(=O)N(C7CCC(=O)NC7=O)C8=O)CC6)C5)CC4)CC3)nc21 (stereo partly shown) [Compound 94],< 0.01 µM,> 60%,+++ (greater than 60%),< 0.01 µM,> 0.2 µM,11 to 30%,> 0.2 µM,> 60%,1 to 5 µM
Cc1nc2c(F)cc(-c3nc(NC4CCN(S(=O)(=O)C5CCN(CC6CC7(C6)CN(c6cc8c(cc6F)C(=O)N(C6CCC(=O)NC6=O)C8=O)C7)CC5)CC4)ncc3F)cc2n1C(C)C (stereo not shown) [Compound 88],0.011 to 0.05 µM,31 to 60%,+++ (greater than 60%),0.101 to 0.2 µM,> 0.2 µM,≤ 10%,> 0.2 µM,> 60%,< 0.1 µM
Cc1nc2c(F)cc(-c3nc(Nc4ccc(S(=O)(=O)C5CCN(C6CCN(C7CN(c8cc9c(cc8F)C(=O)N(C8CCC(=O)NC8=O)C9=O)C7)CC6)CC5)cc4)ncc3F)cc2n1C(C)C (stereo not shown) [Compound 64],> 0.2 µM,> 60%,+++ (greater than 60%),> 0.2 µM,> 0.2 µM,≤ 10%,> 0.2 µM,> 60%,< 0.1 µM
Cc1nc2c(F)cc(-c3nc(NC4CCN(S(=O)(=O)C5CCN(C6CN(C7CCN(c8cc9c(cc8F)C(=O)N(C8CCC(=O)NC8=O)C9=O)CC7)C6)CC5)CC4)ncc3F)cc2n1C(C)C (stereo not shown) [Compound 79],< 0.01 µM,> 60%,+++ (greater than 60%),< 0.01 µM,> 0.2 µM,≤ 10%,< 0.01 µM,> 60%,< 0.1 µM
C[C@@]1(O)CCC[C@H]1n1c(=O)ccc2cnc(NC3CCN(S(=O)(=O)C4CCN(CC5CCN(C6CN(c7cc8c(cc7F)C(=O)N(C7CCC(=O)NC7=O)C8=O)C6)CC5)CC4)CC3)nc21 (stereo partly shown) [Compound 95],0.011 to 0.05 µM,> 60%,++ (31 to 60%),0.051 to 0.1 µM,> 0.2 µM,31 to 60%,< 0.01 µM,> 60%,0.101 to 1 µM
"CC(C)N1CCOc2c(F)cc(-c3nc(Nc4ccc(C5CCN(C6CC7(CCN(c8cc9c(cc8F)C(=O)N(C8CCC(=O)NC8=O)C9=O)CC7)C6)CC5)cn4)ncc3F)cc21 (stereo not shown) [Compound 18, 2-(2,6-dioxo-3-piperidyl)-5-fluoro-6-[2-[4-[6-[[5-fluoro-4-(8-fluoro-4-isopropyl-2,3-dihydro-1,4-benzoxazin-6-yl)pyrimidin-2-yl]amino]-3-pyridyl]-1-piperidyl]-7-azaspiro[3.5]nonan-7-yl]isoindoline-1,3-dione]",–,–,–,–,–,–,–,–,> 10 µM
Cc1nc2c(F)cc(-c3nc(NC4CCN(S(=O)(=O)C5CCN(CC6CC(N7CCC(c8ccc9c(C%10CCC(=O)NC%10=O)nn(C)c9c8)CC7)C6)CC5)CC4)ncc3F)cc2n1C(C)C (stereo not shown) [Compound 103],–,–,–,–,–,–,–,–,< 0.1 µM
C[C@@]1(O)CCC[C@H]1n1c(=O)ccc2cnc(NC3CCN(S(=O)(=O)NCCOCc4cn(CCOCCOCCNc5cccc6c5C(=O)N(C5CCC(=O)NC5=O)C6=O)nn4)CC3)nc21 (stereo partly shown) [Compound 91],–,–,–,–,–,–,–,–,1 to 5 µM
Cc1nc2c(F)cc(-c3nc(Nc4ccc(S(=O)(=O)N5CCN(CC6CCN(c7cccc8c7C(=O)N(C7CCC(=O)NC7=O)C8=O)CC6)CC5)cc4)ncc3F)cc2n1C(C)C (stereo not shown) [Compound 57],–,–,–,–,–,–,–,–,0.101 to 1 µM
